Where two headings read alike, the source gives them in different places.
What was measured:
[1] = tested on: Key Broadleaf Weed and Crop Species; test: Post-emergent Test II herbicidal activity (Table 5); format: in vivo; conditions: post-emergence, 336 h, post-emergent, 14 days after application; for pest or weed control at 70 g/ha: 70 g ai/ha; for pest or weed control at 140 g/ha: 140 g ai/ha
In short: (§1)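 Greenhouse-grown plants at first or second true leaf stage were sprayed post-emergence with compound in acetone/DMSO-based aqueous spray containing crop oil concentrate and surfactant, at 187 L/ha, highest rate plus ½× to 1/16× dilutions. After 14 d, injury was scored visually versus untreated plants, 0 (none) to 100% (complete kill).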

[2] = tested on: Key Grass and Sedge Weeds as well as Grass Crops; test: Post-emergent Test II herbicidal activity (Table 6); format: in vivo; conditions: post-emergence, 336 h; for pest or weed control at 70 g/ha: application rate 70 g ai/ha; for pest or weed control at 140 g/ha: application rate 140 g ai/ha
In short: as §1

[3] = ABUTH: velvetleaf (Abutilon theophrasti), read-out: Visual Growth Reduction (%) 14 Days After Application ABUTH
[4] = AMARE: redroot pigweed (Amaranthus retroflexus), read-out: Visual Growth Reduction (%) 14 Days After Application AMARE
[5] = BRSNN: oilseed-rape, canola (Brassica napus), read-out: Visual Growth Reduction (%) 14 Days After Application BRSNN
[6] = CHEAL: lambsquarters (Chenopodium album), read-out: Visual Growth Reduction (%) 14 Days After Application CHEAL
[7] = EPHHL: wild poinsettia (Euphorbia heterophylla), read-out: Visual Growth Reduction (%) 14 Days After Application EPHHL
[8] = HELAN: sunflower (Helianthus annuus), read-out: Visual Growth Reduction (%) 14 Days After Application HELAN
[9] = VIOTR: wild pansy (Viola tricolor), read-out: Visual Growth Reduction (%) 14 Days After Application VIOTR
[10] = CYPES: yellow nutsedge (Cyperus esculentus), read-out: Visual Growth Reduction (%) 14 Days After Application, CYPES
[11] = DIGSA: crabgrass (Digitaria sanguinalis), read-out: Visual Growth Reduction (%) 14 Days After Application, DIGSA
[12] = ECHCG: barnyardgrass (Echinochloa crus-galli), read-out: Visual Growth Reduction (%) 14 Days After Application, ECHCG
[13] = ORYSA: rice (Oryza sativa), read-out: Visual Growth Reduction (%) 14 Days After Application, ORYSA
[14] = SETFA: giant foxtail (Setaria faberi), read-out: Visual Growth Reduction (%) 14 Days After Application, SETFA
[15] = SORVU: grain sorghum (Sorghum vulgare), read-out: Visual Growth Reduction (%) 14 Days After Application, SORVU
[16] = TRZSS (wheat, Triticum aestivum), read-out: Visual Growth Reduction (%) 14 Days After Application, TRZSS
[17] = ZEAMX: maize, corn (Zea mays), read-out: Visual Growth Reduction (%) 14 Days After Application, ZEAMX

COC(=O)c1nc(-c2cc(F)c(C(F)F)cc2F)nc(N)c1OC [Compound 193]
pest or weed control at 70 g/ha [1, 3]: 60 to 74% | pest or weed control at 140 g/ha [1, 3]: 75 to 84% | pest or weed control at 70 g/ha [1, 4]: 75 to 84% | pest or weed control at 140 g/ha [1, 4]: 95 to 100% | pest or weed control at 70 g/ha [1, 5]: 60 to 74% | pest or weed control at 140 g/ha [1, 5]: 60 to 74% | pest or weed control at 70 g/ha [1, 6]: 85 to 94% | pest or weed control at 140 g/ha [1, 6]: 95 to 100% | pest or weed control at 70 g/ha [1, 7]: 85 to 94% | pest or weed control at 140 g/ha [1, 7]: 95 to 100% | pest or weed control at 70 g/ha [1, 8]: 60 to 74% | pest or weed control at 140 g/ha [1, 8]: 75 to 84% | pest or weed control at 70 g/ha [1, 9]: 0 to 29% | pest or weed control at 140 g/ha [1, 9]: 30 to 44% | pest or weed control at 70 g/ha [2, 10]: 30 to 44% | pest or weed control at 140 g/ha [2, 10]: 45 to 59% | pest or weed control at 70 g/ha [2, 11]: 0 to 29% | pest or weed control at 140 g/ha [2, 11]: 0 to 29% | pest or weed control at 70 g/ha [2, 12]: 0 to 29% | pest or weed control at 140 g/ha [2, 12]: 0 to 29% | pest or weed control at 70 g/ha [2, 13]: 0 to 29% | pest or weed control at 140 g/ha [2, 13]: 0 to 29% | pest or weed control at 70 g/ha [2, 14]: 0 to 29% | pest or weed control at 140 g/ha [2, 14]: 45 to 59% | pest or weed control at 70 g/ha [2, 15]: 0 to 29% | pest or weed control at 140 g/ha [2, 15]: 45 to 59% | pest or weed control at 70 g/ha [2, 16]: 0 to 29% | pest or weed control at 140 g/ha [2, 16]: 30 to 44% | pest or weed control at 70 g/ha [2, 17]: 0 to 29% | pest or weed control at 140 g/ha [2, 17]: 0 to 29% | melting point: 127.9 to 129.2 °C

— US9113629B2, “4-amino-6-(4-substituted-phenyl)-picolinates and 6-amino-2-(4-substituted-phenyl)-pyrimidine-4-carboxylates and their use as herbicides” (DOW AGROSCIENCES LLC, priority 2013, dated 2015)
